Patent US12606548B2, “Fungicidal oxadiazoles” (FMC CORPORATION, priority 2019, dated 2026)
Marks after values point to notes of the source that are not given here.

Experiments:
Assay type in all cases: in vivo
Phakopsora pachyrhizi = experiment: Test A: test suspension sprayed on soybean seedlings, inoculated next day with Phakopsora pachyrhizi (Asian soybean rust), visual disease rating; conditions: relative to the controls
Method in brief: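 Compounds first dissolved in acetone (3% of final volume), then suspended in acetone/water 50/50 with 250 ppm PEG400 and sprayed to run-off on soybean seedlings at the stated ppm rate. Inoculated next day with P. pachyrhizi spores; 24 h saturated atmosphere at 22 °C, then 8 days in growth chamber at 22 °C before visual disease rating.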

Zymoseptoria tritici = experiment: Test B: test suspension sprayed on wheat seedlings, inoculated next day with Zymoseptoria tritici (wheat leaf blotch), visual disease rating; conditions: 250 ppm test suspension, relative to the controls
Description: General protocol for preparing test suspensions for Tests A-C: the test compounds were first dissolved in acetone in an amount equal to 3% of the final volume and then suspended at the desired concentration (in ppm) in acetone and purified water (50/50 mix by volume) containing 250 ppm of the surfactant PEG400 (polyhydric alcohol esters). The resulting test suspensions were then used in Tests A-C.
The test suspension was sprayed to the point of run-off on wheat seedlings. The following day the seedlings were inoculated with a spore suspension of Zymoseptoria tritici (the causal agent of wheat leaf blotch) and incubated in a saturated atmosphere at 24° C., for 48 h, and then moved to a growth chamber at 20° C., for 17 days, after which time visual disease ratings were made.
Results for Tests A-C are given in Table A. In the Table, a rating of 100 indicates 100% disease control and a rating of 0 indicates no disease control (relative to the controls). A dash (-) indicates the compound was not tested. The test suspensions were sprayed at the concentration listed in the column “Rate in ppm”, unless otherwise indicated. An asterisk “*” next to the rating indicates a 250 ppm test suspension was used, a double asterisk “**” next to the rating indicates a 100 ppm test suspension was used, and a triple asterisk “***” next to the rating indicates a 50 ppm test suspension was used.

[1] = system: Puccinia recondita f. sp. tritici; experiment: Test C: test suspension sprayed on wheat seedlings, inoculated next day with Puccinia recondita f. sp. tritici (wheat leaf rust), visual disease rating; conditions: relative to the controls
Method in brief: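 Compounds dissolved in acetone (3% of final volume), suspended in acetone/water 50/50 with 250 ppm PEG400 and sprayed to run-off on wheat seedlings at the listed ppm rate. Inoculated next day with P. recondita spores; 24 h saturated atmosphere at 20° C, then 6 days growth chamber at 20° C; visual disease rating.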

SMILES: CN(C)C(=O)C1=NOC(CN2CCC(c3noc(C(F)(F)F)n3)CC2)C1 (stereo not drawn) [compound 426]
- Test A rating (% disease control) (Phakopsora pachyrhizi; Rate 250 ppm test suspension): 0%
- Test B rating (% disease control) (Zymoseptoria tritici): 9* %
- Test C rating (% disease control) ([1]; Rate 250 ppm test suspension): 0%

SMILES: O=C(c1ccc(Cc2ccc(-c3noc(C(F)(F)F)n3)cc2)o1)C(F)(F)F [compound 450]
- Test A rating (% disease control) (Phakopsora pachyrhizi; Rate 10 ppm test suspension): 94%
- Test B rating (% disease control) (Zymoseptoria tritici): 41* %
- Test C rating (% disease control) ([1]; Rate 10 ppm test suspension): 0%

SMILES: FC(F)(F)c1nc(-c2ccc(Cc3ccccc3)cc2)no1 [compound 451]
- Test A rating (% disease control) (Phakopsora pachyrhizi; Rate 10 ppm test suspension): 99%
- Test B rating (% disease control) (Zymoseptoria tritici): 8* %
- Test C rating (% disease control) ([1]; Rate 10 ppm test suspension): 0%

SMILES: COC(=O)c1cnc(Oc2ccc(-c3noc(C(F)(F)F)n3)cc2)s1 [compound 452]
- Test A rating (% disease control) (Phakopsora pachyrhizi; Rate 10 ppm test suspension): 81%
- Test B rating (% disease control) (Zymoseptoria tritici): 59* %
- Test C rating (% disease control) ([1]; Rate 10 ppm test suspension): 0%

SMILES: CCOC(=O)c1ccc(Cc2ccc(-c3noc(C(F)(F)F)n3)cc2)cc1 [compound 453]
- Test A rating (% disease control) (Phakopsora pachyrhizi; Rate 10 ppm test suspension): 92%
- Test B rating (% disease control) (Zymoseptoria tritici): 50* %
- Test C rating (% disease control) ([1]; Rate 10 ppm test suspension): 0%

SMILES: COC(=O)c1coc(Cc2ccc(-c3noc(C(F)(F)F)n3)cc2)c1 [compound 456]
- Test A rating (% disease control) (Phakopsora pachyrhizi; Rate 10 ppm test suspension): 100%
- Test B rating (% disease control) (Zymoseptoria tritici): 65* %
- Test C rating (% disease control) ([1]; Rate 10 ppm test suspension): 68%

SMILES: CCOC(=O)c1cnn(CN2CCC(c3noc(C(F)(F)F)n3)CC2)c1 [compound 458]
- Test A rating (% disease control) (Phakopsora pachyrhizi; Rate 50 ppm test suspension): 0%
- Test B rating (% disease control) (Zymoseptoria tritici): 0* %
- Test C rating (% disease control) ([1]; Rate 50 ppm test suspension): 0%

SMILES: CCOC(=O)c1cnn(CCN2CCC(c3noc(C(F)(F)F)n3)CC2)c1 [compound 459]
- Test A rating (% disease control) (Phakopsora pachyrhizi; Rate 50 ppm test suspension): 0%
- Test B rating (% disease control) (Zymoseptoria tritici): 0* %
- Test C rating (% disease control) ([1]; Rate 50 ppm test suspension): 0%

SMILES: O=C(NCC(F)(F)F)c1csc(Cc2ccc(-c3noc(C(F)(F)F)n3)cc2)n1 [compound 463]
- Test A rating (% disease control) (Phakopsora pachyrhizi; Rate 10 ppm test suspension): 100%
- Test B rating (% disease control) (Zymoseptoria tritici): 65* %
- Test C rating (% disease control) ([1]; Rate 10 ppm test suspension): 100%

SMILES: COCCNC(=O)c1coc(COc2ccc(-c3noc(C(F)(F)F)n3)cc2)n1 [compound 464]
- Test A rating (% disease control) (Phakopsora pachyrhizi; Rate 10 ppm test suspension): 79%
- Test B rating (% disease control) (Zymoseptoria tritici): 94* %
- Test C rating (% disease control) ([1]; Rate 10 ppm test suspension): 23%

SMILES: O=C(NCC(F)(F)F)c1coc(COc2ccc(-c3noc(C(F)(F)F)n3)cc2)n1 [compound 465]
- Test A rating (% disease control) (Phakopsora pachyrhizi; Rate 10 ppm test suspension): 100%
- Test B rating (% disease control) (Zymoseptoria tritici): 0* %
- Test C rating (% disease control) ([1]; Rate 10 ppm test suspension): 80%

SMILES: O=C(NCCn1cccn1)c1coc(COc2ccc(-c3noc(C(F)(F)F)n3)cc2)n1 [compound 466]
- Test A rating (% disease control) (Phakopsora pachyrhizi; Rate 10 ppm test suspension): 100%
- Test B rating (% disease control) (Zymoseptoria tritici): 3* %
- Test C rating (% disease control) ([1]; Rate 10 ppm test suspension): 55%

SMILES: O=C(NCCC(F)(F)F)c1coc(COc2ccc(-c3noc(C(F)(F)F)n3)cc2)n1 [compound 467]
- Test A rating (% disease control) (Phakopsora pachyrhizi; Rate 10 ppm test suspension): 97%
- Test B rating (% disease control) (Zymoseptoria tritici): 6* %
- Test C rating (% disease control) ([1]; Rate 10 ppm test suspension): 68%

SMILES: N#CCNC(=O)c1coc(COc2ccc(-c3noc(C(F)(F)F)n3)cc2)n1 [compound 468]
- Test A rating (% disease control) (Phakopsora pachyrhizi; Rate 10 ppm test suspension): 84%
- Test B rating (% disease control) (Zymoseptoria tritici): 22* %
- Test C rating (% disease control) ([1]; Rate 10 ppm test suspension): 0%

SMILES: COCCNC(=O)c1csc(COc2ccc(-c3noc(C(F)(F)F)n3)cc2)n1 [compound 469]
- Test A rating (% disease control) (Phakopsora pachyrhizi; Rate 10 ppm test suspension): 96%
- Test B rating (% disease control) (Zymoseptoria tritici): 65* %
- Test C rating (% disease control) ([1]; Rate 10 ppm test suspension): 86%

SMILES: O=C(NCC(F)(F)F)c1csc(COc2ccc(-c3noc(C(F)(F)F)n3)cc2)n1 [compound 470]
- Test A rating (% disease control) (Phakopsora pachyrhizi; Rate 10 ppm test suspension): 100%
- Test B rating (% disease control) (Zymoseptoria tritici): 0* %
- Test C rating (% disease control) ([1]; Rate 10 ppm test suspension): 94%

SMILES: O=C(NCCn1cccn1)c1csc(COc2ccc(-c3noc(C(F)(F)F)n3)cc2)n1 [compound 471]
- Test A rating (% disease control) (Phakopsora pachyrhizi; Rate 10 ppm test suspension): 77%
- Test B rating (% disease control) (Zymoseptoria tritici): 15* %
- Test C rating (% disease control) ([1]; Rate 10 ppm test suspension): 80%

SMILES: O=C(NCCC(F)(F)F)c1csc(COc2ccc(-c3noc(C(F)(F)F)n3)cc2)n1 [compound 472]
- Test A rating (% disease control) (Phakopsora pachyrhizi; Rate 10 ppm test suspension): 77%
- Test B rating (% disease control) (Zymoseptoria tritici): 22* %
- Test C rating (% disease control) ([1]; Rate 10 ppm test suspension): 0%

SMILES: N#CCNC(=O)c1csc(COc2ccc(-c3noc(C(F)(F)F)n3)cc2)n1 [compound 473]
- Test A rating (% disease control) (Phakopsora pachyrhizi; Rate 10 ppm test suspension): 94%
- Test B rating (% disease control) (Zymoseptoria tritici): 28* %
- Test C rating (% disease control) ([1]; Rate 10 ppm test suspension): 89%
